This passage reports DC50 results from patent US12091411B2, “IRAK degraders and uses thereof” (Kymera Therapeutics, Inc., priority 2022, dated 2024).

In general, DC50 refers to the concentration giving 50% degradation.

The structures appear in SMILES notation. Where two headings read alike, the source gives them in different places.

The target of this assay is T1, IRAK4 (Homo sapiens, UniProt Q9NWZ3).
T1 construct: Degradation of IRAK4 in OCI-LY10 was quantitatively measured using Meso Scale Discovery technology; endogenous in cells; host or cells: OCI-LY10
T1 sequence (Q9NWZ3 1-460): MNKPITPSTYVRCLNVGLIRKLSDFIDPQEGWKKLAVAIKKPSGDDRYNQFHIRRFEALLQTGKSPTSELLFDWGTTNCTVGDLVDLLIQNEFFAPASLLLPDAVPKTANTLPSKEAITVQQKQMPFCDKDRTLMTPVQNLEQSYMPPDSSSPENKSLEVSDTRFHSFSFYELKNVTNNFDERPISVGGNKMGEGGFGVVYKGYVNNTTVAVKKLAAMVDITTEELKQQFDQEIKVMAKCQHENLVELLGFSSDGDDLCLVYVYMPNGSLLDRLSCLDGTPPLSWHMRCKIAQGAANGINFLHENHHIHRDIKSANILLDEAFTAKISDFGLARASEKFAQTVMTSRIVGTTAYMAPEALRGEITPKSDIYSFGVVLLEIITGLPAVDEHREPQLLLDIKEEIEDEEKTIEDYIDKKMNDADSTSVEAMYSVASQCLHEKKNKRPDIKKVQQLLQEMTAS
Briefly: IRAK4 MSD Degradation in OCI-LY10. Type of assay: cell-based. To be noted: OCI-LY10 cells, MSD. An outline of the steps:
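DC50, from a three-parameter logistic fit and reported as letter bins A (<0.01 μM), B, C, D (>0.2 μM or not tested), reflects IRAK4 loss measured by MSD electrochemiluminescence in OCI-LY10 lysates. Treatment: 8 doses, 1:3 steps, top 1 to 10 μM, 4 to 24 h, 37 °C.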

Setting [1] is: 4 hrs incubation, read-out: IRAK4 degradation in OCI-LY10 at 4 hrs: DC50.
The mark [2] stands for this setting: 24 hrs incubation, read-out: IRAK4 degradation in OCI-LY10 at 24 hrs: DC50.

With `COc1cc2nn([C@H]3CC[C@H](CN4CCC5(CC4)CCN(c4cccc6c4n(C)c(=O)n6C4CCC(=O)NC4=O)CC5)CC3)cc2cc1NC(=O)c1cncc(S(=O)(=O)C(F)(F)F)c1` (stereo partly drawn) [I-154], the 50% degradation concentration (DC50) is greater than 200 nM under setting [1] and greater than 200 nM under setting [2].

On to `COc1cc2nn([C@H]3CC[C@H](CN4CCC5(CC4)CCN(c4cccc6c4n(C)c(=O)n6C4CCC(=O)NC4=O)CC5)CC3)cc2cc1NC(=O)c1cncc(C(F)(F)F)n1` (stereo partly drawn) [I-155], for which the DC50 was less than 10 nM under setting [1] and greater than 200 nM under setting [2].

As to `COc1cc2nn([C@H]3CC[C@H](CN4CCC5(CC4)CCN(c4cccc6c4n(C)c(=O)n6C4CCC(=O)NC4=O)CC5)CC3)cc2cc1NC(=O)c1cncc(C#N)c1` (stereo partly drawn) [I-156], the DC50 runs as follows: under setting [1], greater than 200 nM; under setting [2], 10 to 100 nM.

For `COc1cc2nn([C@H]3CC[C@H](CN4CCC5(CC4)CCN(c4cccc6c4n(C)c(=O)n6C4CCC(=O)NC4=O)CC5)CC3)cc2cc1NC(=O)c1nn(C)cc1Cl` (stereo partly drawn) [I-157], the DC50 is less than 10 nM under setting [1] and greater than 200 nM under setting [2].

Consider `Cn1c(=O)n(C2CCC(=O)NC2=O)c2cccc(N3CCC(CN4CCN(C[C@H]5CC[C@H](n6cc(NC(=O)c7cnn8ccc(N9C[C@@H]%10C[C@H]9CO%10)nc78)c(C(F)F)n6)CC5)CC4)CC3)c21` (stereo partly drawn) [I-158], for which the half-maximal degradation concentration (DC50) is, setting by setting: under setting [1], less than 10 nM; under setting [2], greater than 200 nM.

As to `Cn1c(=O)n(C2CCC(=O)NC2=O)c2cccc(N3CCC(OC4CCN(C[C@H]5CC[C@H](n6cc(NC(=O)c7cnn8ccc(N9C[C@@H]%10C[C@H]9CO%10)nc78)c(C(F)F)n6)CC5)CC4)CC3)c21` (stereo partly drawn) [I-159], the DC50 is less than 10 nM under setting [1] and greater than 200 nM under setting [2].

With `Cn1c(=O)n(C2CCC(=O)NC2=O)c2cccc(C#CCCC3CCN(CC4CCC(n5cc(NC(=O)c6cnn7ccc(C8C[C@H]9C[C@@H]8CO9)nc67)c(C(F)F)n5)CC4)CC3)c21` (stereo partly drawn) [I-160], the DC50 is less than 10 nM under setting [1] and less than 10 nM under setting [2].

`Cn1c(=O)n(C2CCC(=O)NC2=O)c2cccc(N3CCN(CC4CCN(C[C@H]5CC[C@H](n6cc(NC(=O)c7cnn8ccc(N9C[C@@H]%10C[C@H]9CO%10)nc78)c(C(F)F)n6)CC5)CC4)CC3)c21` (stereo partly drawn) [I-161]: the DC50 under setting [1] was less than 10 nM and the DC50 under setting [2] was greater than 200 nM.

For `Cn1c(=O)n(C2CCC(=O)NC2=O)c2cccc(C#CCCN3CCN(CC4CCC(n5cc(NC(=O)c6cnn7ccc(C8C[C@H]9C[C@@H]8CO9)nc67)c(C(F)F)n5)CC4)CC3)c21` (stereo partly drawn) [I-162], the DC50 was less than 10 nM under setting [1] and greater than 200 nM under setting [2].

For the molecule `Cn1c(=O)n(C2CCC(=O)NC2=O)c2cccc(N3CCN(CC4CCN(C[C@H]5CC[C@H](n6cc(NC(=O)c7cnn8ccc(N9C[C@H]%10C[C@@H]9CO%10)nc78)c(C(F)F)n6)CC5)CC4)CC3)c21` (stereo partly drawn) [I-163], the half-maximal degradation concentration (DC50) under setting [1] is less than 10 nM and the DC50 under setting [2] was greater than 200 nM.

On to `Cn1c(=O)n(C2CCC(=O)NC2=O)c2cccc(N3CCC(CN4CCN(C[C@H]5CC[C@H](n6cc(NC(=O)c7cnn8ccc(N9C[C@H]%10C[C@@H]9CO%10)nc78)c(C(F)F)n6)CC5)CC4)CC3)c21` (stereo partly drawn) [I-164], for which the half-maximal degradation concentration (DC50) runs as follows: under setting [1], less than 10 nM; under setting [2], greater than 200 nM.

For the molecule `Cn1c(=O)n(C2CCC(=O)NC2=O)c2cccc(N3CCC(OC4CCN(C[C@H]5CC[C@H](n6cc(NC(=O)c7cnn8ccc(N9C[C@H]%10C[C@@H]9CO%10)nc78)c(C(F)F)n6)CC5)CC4)CC3)c21` (stereo partly drawn) [I-165], the half-maximal degradation concentration (DC50) was less than 10 nM under setting [1] and greater than 200 nM under setting [2].

Regarding `Cn1c(=O)n(C2CCC(=O)NC2=O)c2cccc(C#CCOC3CCN(C[C@H]4CC[C@H](n5cc(NC(=O)c6cnn7ccc(N8C[C@H]9C[C@@H]8CO9)nc67)c(C(F)(F)F)n5)CC4)CC3)c21` (stereo partly drawn) [I-166], the half-maximal degradation concentration (DC50) by setting is: under setting [1], 10 to 100 nM; under setting [2], greater than 200 nM.

As for `Cn1c(=O)n(C2CCC(=O)NC2=O)c2cccc(C#CCOC3CCN(C[C@H]4CC[C@H](n5cc(NC(=O)c6cnn7ccc(N8C[C@H]9C[C@@H]8CO9)nc67)c(Cl)n5)CC4)CC3)c21` (stereo partly drawn) [I-167], the 50% degradation concentration (DC50) is greater than 200 nM under setting [1] and 10 to 100 nM under setting [2].

In the case of `Cc1nn([C@H]2CC[C@H](CN3CCC(OCC#Cc4cccc5c4n(C)c(=O)n5C4CCC(=O)NC4=O)CC3)CC2)cc1NC(=O)c1cnn2ccc(N3C[C@H]4C[C@@H]3CO4)nc12` (stereo partly drawn) [I-168], the DC50 was greater than 200 nM under setting [1] and greater than 200 nM under setting [2].

For `COc1nn([C@H]2CC[C@H](CN3CCC(OCC#Cc4cccc5c4n(C)c(=O)n5C4CCC(=O)NC4=O)CC3)CC2)cc1NC(=O)c1cnn2ccc(N3C[C@H]4C[C@@H]3CO4)nc12` (stereo partly drawn) [I-169], the half-maximal degradation concentration (DC50) by setting is: under setting [1], greater than 200 nM; under setting [2], greater than 200 nM.

With `Cc1ccc(-c2nn([C@H]3CC[C@H](CN4CCC(OCC#Cc5cccc6c5n(C)c(=O)n6C5CCC(=O)NC5=O)CC4)CC3)cc2NC(=O)c2cnn3cccnc23)nc1` (stereo partly drawn) [I-170], the DC50 reads like this: under setting [1], greater than 200 nM; under setting [2], 10 to 100 nM.

For `Cc1ccc(-c2nn([C@H]3CC[C@H](CN4CCC(OCC#Cc5cccc6c5n(C)c(=O)n6C5CCC(=O)NC5=O)CC4)CC3)cc2NC(=O)c2cnn3cccnc23)c(F)c1` (stereo partly drawn) [I-171], the 50% degradation concentration (DC50) was greater than 200 nM under setting [1] and 10 to 100 nM under setting [2].

As for `Cc1ccc(-c2nn([C@H]3CC[C@H](CN4CCC(OCC#Cc5cccc6c5n(C)c(=O)n6C5CCC(=O)NC5=O)CC4)CC3)cc2NC(=O)c2cnn3cccnc23)cc1` (stereo partly drawn) [I-172], the DC50 under setting [1] was greater than 200 nM and the half-maximal degradation concentration (DC50) under setting [2] was 10 to 100 nM.

On to `Cc1ccc(-c2nn([C@H]3CC[C@H](CN4CCC(OCC#Cc5cccc6c5n(C)c(=O)n6C5CCC(=O)NC5=O)CC4)CC3)cc2NC(=O)c2cnn3cccnc23)nc1` (stereo partly drawn) [I-173], for which the DC50 is, setting by setting: under setting [1], greater than 200 nM; under setting [2], 10 to 100 nM.

As for `Cn1c(=O)n(C2CCC(=O)NC2=O)c2cccc(C#CCOC3CCN(C[C@H]4CC[C@H](n5cc(NC(=O)c6cnn7ccc(N8C[C@H]9C[C@@H]8CO9)nc67)c(C(C)(C)O)n5)CC4)CC3)c21` (stereo partly drawn) [I-174], the 50% degradation concentration (DC50) runs as follows: under setting [1], greater than 200 nM; under setting [2], greater than 200 nM.

Regarding `Cn1c(=O)n(C2CCC(=O)NC2=O)c2cccc(C#CCOC3CCN(C[C@H]4CC[C@H](c5ccc(C(F)F)c(NC(=O)c6cnn7ccc(N8C[C@H]9C[C@@H]8CO9)nc67)c5)CC4)CC3)c21` (stereo partly drawn) [I-175], the DC50 is greater than 200 nM under setting [1] and greater than 200 nM under setting [2].

For `Cn1c(=O)n(C2CCC(=O)NC2=O)c2cccc(C#CCOC3CCN(CC4CCN(c5ccc(C(F)F)c(NC(=O)c6cnn7ccc(N8C[C@H]9C[C@@H]8CO9)nc67)c5)CC4)CC3)c21` (stereo partly drawn) [I-176], the 50% degradation concentration (DC50) under setting [1] is greater than 200 nM and the DC50 under setting [2] was greater than 200 nM.

Turning to `COc1ccc([C@H]2CC[C@H](CN3CCC(OCC#Cc4cccc5c4n(C)c(=O)n5C4CCC(=O)NC4=O)CC3)CC2)cc1NC(=O)c1cnn2ccc(N3C[C@H]4C[C@@H]3CO4)nc12` (stereo partly drawn) [I-177], the DC50 was greater than 200 nM under setting [1] and greater than 200 nM under setting [2].

Take `Cn1c(=O)n(C2CCC(=O)NC2=O)c2cccc(C#CCOC3CCN(C[C@H]4CC[C@H](c5cnc(C(F)F)c(NC(=O)c6cnn7ccc(N8C[C@H]9C[C@@H]8CO9)nc67)c5)CC4)CC3)c21` (stereo partly drawn) [I-178]: the half-maximal degradation concentration (DC50) is greater than 200 nM under setting [1] and greater than 200 nM under setting [2].

`Cn1c(=O)n(C2CCC(=O)NC2=O)c2cccc(C#CCOC3CCN(CC4CCN(c5cnc(C(F)F)c(NC(=O)c6cnn7ccc(N8C[C@H]9C[C@@H]8CO9)nc67)c5)CC4)CC3)c21` (stereo partly drawn) [I-179]: the 50% degradation concentration (DC50) under setting [1] is greater than 200 nM and the 50% degradation concentration (DC50) under setting [2] was greater than 200 nM.

As for `COc1ncc([C@H]2CC[C@H](CN3CCC(OCC#Cc4cccc5c4n(C)c(=O)n5C4CCC(=O)NC4=O)CC3)CC2)cc1NC(=O)c1cnn2ccc(N3C[C@H]4C[C@@H]3CO4)nc12` (stereo partly drawn) [I-180], the DC50 under setting [1] was greater than 200 nM and the 50% degradation concentration (DC50) under setting [2] was greater than 200 nM.

Turning to `Cn1c(=O)n(C2CCC(=O)NC2=O)c2cccc(C#CCOC3CCN(C[C@H]4CC[C@H](c5ccc(NC(=O)c6cnn7ccc(N8C[C@H]9C[C@@H]8CO9)nc67)c(C(F)F)n5)CC4)CC3)c21` (stereo partly drawn) [I-181], the DC50 under setting [1] is greater than 200 nM and the DC50 under setting [2] was greater than 200 nM.

As to `Cn1c(=O)n(C2CCC(=O)NC2=O)c2cccc(C#CCOC3CCN(C[C@H]4CC[C@H](c5ccc(NC(=O)c6cnn7ccc(N8C[C@H]9C[C@@H]8CO9)nc67)c(C(F)F)c5)CC4)CC3)c21` (stereo partly drawn) [I-182], the DC50 under setting [1] is greater than 200 nM and the DC50 under setting [2] is greater than 200 nM.

As for `COc1nc([C@H]2CC[C@H](CN3CCC(OCC#Cc4cccc5c4n(C)c(=O)n5C4CCC(=O)NC4=O)CC3)CC2)ccc1NC(=O)c1cnn2ccc(N3C[C@H]4C[C@@H]3CO4)nc12` (stereo partly drawn) [I-183], the DC50 was greater than 200 nM under setting [1] and greater than 200 nM under setting [2].

Turning to `COc1cc([C@H]2CC[C@H](CN3CCC(OCC#Cc4cccc5c4n(C)c(=O)n5C4CCC(=O)NC4=O)CC3)CC2)ccc1NC(=O)c1cnn2ccc(N3C[C@H]4C[C@@H]3CO4)nc12` (stereo partly drawn) [I-184], the DC50 is greater than 200 nM under setting [1] and greater than 200 nM under setting [2].

With `COc1cc2nn([C@H]3CC[C@H](CN4CCC5(CC4)CCN(c4cccc6c4n(C)c(=O)n6C4CCC(=O)NC4=O)CC5)CC3)cc2cc1NC(=O)c1cncc(C(C)(C)C#N)c1` (stereo partly drawn) [I-185], the DC50 reads like this: under setting [1], greater than 200 nM; under setting [2], greater than 200 nM.

`Cn1c(=O)n(C2CCC(=O)NC2=O)c2cccc(N3CCC4(CCN(C[C@H]5CC[C@H](n6cc7cc(NC(=O)c8cncc(C#N)c8)c(F)cc7n6)CC5)CC4)CC3)c21` (stereo partly drawn) [I-186]: the DC50 under setting [1] is greater than 200 nM and the DC50 under setting [2] is greater than 200 nM.
